According to publication PMC4312629, “Pharmacokinetics of Etravirine Combined with Atazanavir/Ritonavir and a Nucleoside Reverse Transcriptase Inhibitor in Antiretroviral Treatment-Experienced, HIV-1-Infected Patients” (AIDS Research and Treatment, 2015):
Like-named read-outs stand apart in the source and are kept apart here.

Tests used:
[1] = set-up: method as in PMID 20881958; conditions: Pooled DUET: ETR 200 mg bid + DRV/r 600/100 mg bid, Week 4 (reference, n = 25), cited from earlier work
[2] = TEACH: steady-state plasma pharmacokinetics of atazanavir and etravirine (LC-MS/MS, noncompartmental analysis); type: in vivo, HIV-1-infected patients
Method: Blood samples for analyses of atazanavir and ritonavir plasma concentrations were collected over 24 hours (before dose and 1, 2, 3, 4, 6, 9, 12, and 24 hours after dose) on the last day of the two-week pretreatment period and after Week 2 of the treatment period. Blood samples for evaluation of etravirine plasma concentrations were collected after Week 2. Atazanavir, ritonavir, and etravirine were assayed using validated liquid chromatography-mass spectrometry/mass spectrometry, with a lower limit of quantification of 250 ng/mL, 5.00 ng/mL, and 2.00 ng/mL, respectively.
Pharmacokinetic parameters were obtained using noncompartmental analysis (WinNonlin Professional version 4.1, Pharsight, Mountain View, CA, USA) and included C min, maximum plasma concentration (C max), and AUC12 h for etravirine and AUC24 h for atazanavir and ritonavir.
The least square means (LSM) of C min, C max, and AUC24 for atazanavir and ritonavir were estimated with a linear mixed-effects model, including treatment as fixed effect and subject as a random effect (SAS version 9.3, SAS Institute, Cary, NC, USA). A 90% confidence interval (CI) was constructed around the difference between the LSM of test and reference. The LSM differences and 90% CIs were retransformed to the original scale. No effect (prespecified) was declared if the 90% CIs of the LSM ratio were within the limits of 80.00–125.00%. The pharmacokinetics of etravirine was compared with historic data from DUET [21].

[3] = healthy volunteers; etravirine 800 mg bid (formulation TF035) and ATV/r 300/100 mg qd; cited from earlier work
[4] = TEACH pharmacokinetic substudy: addition of TDF for seven days to atazanavir/ritonavir and etravirine; conditions: adding TDF to ATV/r and etravirine, both ATV/r dose groups combined (7 patients), compared with Day −1
Method: The trial consisted of a ≤4-week screening period, a pretreatment period of two weeks (atazanavir/ritonavir 300/100 mg qd and two NRTIs), and a 48-week treatment period. Patients were randomized 1 : 1, by a computer-generated interactive web response system, to receive either atazanavir/ritonavir 300/100 mg qd or 400/100 mg qd (Figure 1). […] Atazanavir/ritonavir 400/100 mg qd was given to the other group to offset the potential reduction in atazanavir exposure, while at the same time investigating if the higher dose of atazanavir might further affect etravirine exposure. At baseline, in both groups, one of the two NRTIs was switched to etravirine 200 mg bid. NRTIs were selected by the investigators based on resistance testing; however, tenofovir disoproxil fumarate (TDF) was not permitted. Patients who were intolerant to their NRTI could switch to another sensitive NRTI, excluding TDF. Tenofovir decreases both atazanavir and etravirine exposure.
Seven patients participated in the pharmacokinetic substudy, 3 patients randomized to atazanavir/ritonavir 300/100 mg qd and 4 patients randomized to atazanavir/ritonavir 400/100 mg qd. Because of the small sample size, results of the two groups were combined.

HIV-1 = conditions: for median etravirine FC (range): virologic failures (n = 12)
Excerpt: The main inclusion criteria were HIV-1-infected adults who had previously received ≥1 antiretroviral regimen but failed ≤1 PI-based regimen and were currently on a stable but failing antiretroviral regimen (viral load [VL] > 500 copies/mL at screening) (Cobas Amplicor HIV-1 VL assay, Roche Molecular Systems, Inc., Branchburg, NJ, USA; assay performed by Covance Central Laboratory Services). Patients were required to be sensitive to atazanavir, etravirine, and the selected NRTIs (with the exception of emtricitabine or lamivudine) based on resistance testing at screening using the PhenoSense GT assay (Monogram Biosciences, South San Francisco, CA, USA). […] The clinical cut-offs used for etravirine and boosted atazanavir were 2.9–10.0 and 5.2, respectively.
During the treatment session, plasma VL was determined at baseline, Weeks 2 and 4, and monthly until Week 48. Virologic failures were classified as patients who were still in the study at Week 12 and (i) who never achieved two consecutive VL values < 50 copies/mL (nonresponders) or (ii) first achieved two consecutive VL values < 50 copies/mL followed by two consecutive VL values > 50 copies/mL or discontinued for any reason with VL > 50 copies/mL (rebounders). Changes in viral phenotype and genotype in virologic failures were determined using the PhenoSense GT assay.

[5] = Test 1 (with ATV/r 300/100 mg qd, Week 2) versus pooled DUET reference (ETR + DRV/r, Week 4)
[6] = Test 2 (with ATV/r 400/100 mg qd, Week 2) versus pooled DUET reference (ETR + DRV/r, Week 4)
[7] = with ATV/r 300/100 mg qd, compared with historic control data (DUET)
[8] = with ATV/r 400/100 mg qd, compared with historic data (DUET)

Compound: Cc1cc(C#N)cc(C)c1Oc1nc(Nc2ccc(C#N)cc2)nc(N)c1Br [etravirine]
- etravirine AUC0–12 h ([1]; mean ± SD): 7964 ± 11180 ng·h/mL
- etravirine C 0 h ([1]; mean ± SD): 545.0 ± 818.6 ng/mL
- etravirine C max ([1]; mean ± SD): 879.6 ± 1030 ng/mL
- etravirine C min ([1]; mean ± SD): 452.6 ± 806.0 ng/mL
- etravirine t max ([1]; median (range)): 3.95 (0.08–6.08) h
- etravirine AUC0–12 h LSM ratio (90% CI) of test versus reference [2, 5]: 1.24 (0.88–1.76)
- etravirine C max LSM ratio (90% CI) of test versus reference [2, 5]: 1.06 (0.78–1.46)
- etravirine C min LSM ratio (90% CI) of test versus reference [2, 5]: 1.07 (0.60–1.90)
- etravirine AUC0–12 h LSM ratio (90% CI) of test versus reference [2, 6]: 0.84 (0.60–1.18)
- etravirine C max LSM ratio (90% CI) of test versus reference [2, 6]: 0.87 (0.65–1.18)
- etravirine C min LSM ratio (90% CI) of test versus reference [2, 6]: 0.83 (0.54–1.29)
- increase in etravirine AUC12 h [2, 7]: 24%
- increase in etravirine C max [2, 7]: 6%
- increase in etravirine C min [2, 7]: 7%
- decrease in etravirine AUC12 h [2, 8]: 16%
- decrease in etravirine C max [2, 8]: 13%
- decrease in etravirine C min [2, 8]: 17%
- increase in etravirine AUC24 h [3]: 1.3 fold
- increase in etravirine C min [3]: 1.3 fold
- decrease in etravirine AUC12 h [4]: 15%
- decrease in etravirine C max [4]: 19%
- etravirine AUC12 h LSM ratio [90% CIs] [4]: 0.85 [0.79–0.92]
- etravirine C max LSM ratio [90% CIs] [4]: 0.81 [0.72–0.91]
- median etravirine FC (range) (HIV-1; at baseline): 0.73 (0.4–1.7)
- median etravirine FC (range) (HIV-1; at endpoint): 2.99 (0.6–40.0)

Compound: COC(=O)N[C@H](C(=O)N[C@@H](Cc1ccccc1)[C@@H](O)CN(Cc1ccc(-c2ccccn2)cc1)NC(=O)[C@@H](NC(=O)OC)C(C)(C)C)C(C)(C)C [atazanavir]
- Tmax ([2]; human, in vivo, Test 1: ATV/r 300/100 mg qd + one NRTI + ETR 200 mg bid, Week 2, median (range), read-out: atazanavir t max): 3 h
- change in atazanavir FC (HIV-1; virologic failures, baseline to endpoint): no increase
